From ChEMBL document CHEMBL1137804, “Natural product-based anti-HIV drug discovery and development facilitated by the NCI developmental therapeutics program” (J Nat Prod, 2001) come the findings set out here.

Series [1] concerns Human immunodeficiency virus 1. The series can be described thus: Antiviral activity against HIV1 in human CEM-SS cells assessed as inhibition of virus-induced cytopathic effect. Type of series: functional, organism-based. The note with it: Human immunodeficiency virus 1, CEM-SS. A general note: Damage to the host cells serves as the signal in cytopathic effect assays.
For series [2], the system named is Human immunodeficiency virus 1. Put plainly: Antiviral activity against HIV1 RF in human H9 cells assessed as inhibition of virus-induced cytopathic effect by formazan-based conventional colorimetric technique. The note with it: Human immunodeficiency virus 1, RF. Type of series: functional, organism-based.
The subject of series [3] is Human immunodeficiency virus 1. Put plainly: Antiviral activity against HIV1 3B in human H9 cells assessed as inhibition of virus-induced cytopathic effect by formazan-based conventional colorimetric technique. It counts as functional, organism-based. The note with it: Human immunodeficiency virus 1, 3B.
Series [4] addresses Human immunodeficiency virus type 1 reverse transcriptase (Human immunodeficiency virus 1, UniProt Q72547). Put plainly: Inhibition of HIV1 reverse transcriptase.
The nature of series [5]: Therapeutic index, ratio of cytotoxicity against human CEM-SS cells to EC50 for HIV1 RF. The note with it: read-out: TI. Type of series: cell-based.
Series [6] has as its system Human immunodeficiency virus 1. The series can be described thus: Antiviral activity against HIV1 RF in human CEM-SS cells assessed as inhibition of virus-induced cytopathic effect. It counts as functional, organism-based. The conditions noted are these: Human immunodeficiency virus 1, RF.
The nature of series [7]: Therapeutic index, ratio of cytotoxicity against human H9 cells to EC50 for HIV1 RF. The conditions noted are these: read-out: TI. Type of series: cell-based.
A short description of series [8]: Therapeutic index, ratio of cytotoxicity against human H9 cells to EC50 for HIV1 3B. It counts as cell-based. The note with it: read-out: TI.
Series [9] concerns Human immunodeficiency virus 1. Put plainly: Antiviral activity against HIV1 LAI in human MT2 cells assessed as virus-induced cytopathic effect after 72 hrs. Type of series: functional. The conditions noted are these: Human immunodeficiency virus 1, LAI, MT2, 72 h; read-out: ED50 (the source's name).
Series [10] is described as follows: Therapeutic index, ratio of cytotoxicity against human MT2 cells to EC50 for HIV1 LAI. The note with it: read-out: TI. It counts as cell-based.
The target in series [11] is Human immunodeficiency virus type 1 integrase (Human immunodeficiency virus 1, UniProt Q7ZJM1). Put plainly: Inhibition of HIV1 integrase-catalyzed disintegration activity.
Human immunodeficiency virus type 1 integrase, sequence (Q7ZJM1 whole entry): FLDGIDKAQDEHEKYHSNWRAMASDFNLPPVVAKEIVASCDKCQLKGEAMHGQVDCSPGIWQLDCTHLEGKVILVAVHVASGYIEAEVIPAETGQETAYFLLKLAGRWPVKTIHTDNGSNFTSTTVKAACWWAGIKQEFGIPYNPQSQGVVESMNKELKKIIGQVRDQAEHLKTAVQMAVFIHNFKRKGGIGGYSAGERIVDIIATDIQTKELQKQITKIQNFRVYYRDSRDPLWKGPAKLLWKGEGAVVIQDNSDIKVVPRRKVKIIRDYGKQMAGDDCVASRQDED
Series [12] deals with Human immunodeficiency virus 1. The series can be described thus: Antiviral activity against HIV1 RF in human CEM cells. The conditions noted are these: Human immunodeficiency virus 1, RF, CCRF-CEM. Type of series: functional, organism-based.
Series [13] deals with Human immunodeficiency virus 1. The series can be described thus: Antiviral activity against HIV1 Rojo in human CEM cells. It counts as functional, organism-based. The note with it: Human immunodeficiency virus 1, Rojo, CCRF-CEM.
The test system of series [14] is Human immunodeficiency virus 2. Put plainly: Antiviral activity against HIV2. Type of series: functional, organism-based.
Series [15] concerns Human immunodeficiency virus 1. Put plainly: Antiviral activity against pyridinone-resistant HIV1 A17. Type of series: functional, organism-based. The conditions noted are these: Human immunodeficiency virus 1, A17.
Series [16] relates to Human immunodeficiency virus 1. Put plainly: Antiviral activity against azidothymidine-resistant HIV1 G9106. It counts as functional, organism-based. The conditions noted are these: Human immunodeficiency virus 1, G9106.
In series [17] the test system is H9. Put plainly: Cytotoxicity against human H9 cells. It counts as cell-based.
Series [18] can be described thus: Therapeutic index, ratio of cytotoxicity against human MT2 cells to EC50 for HIV1 RF. It counts as cell-based. The note with it: read-out: TI.
For series [19], the system named is Human immunodeficiency virus 1. Put plainly: Antiviral activity against HIV1 RF in human MT2 cells assessed as virus-induced cytopathic effect after 72 hrs. It counts as functional. The note with it: Human immunodeficiency virus 1, RF, MT2, 72 h; read-out: ED50 (the source's name).

Values after ≈ are worked out from the molar mass of the structure shown.

On to `CC(C)=CCC[C@]1(C)C=Cc2c(ccc3c2C(=O)C(O)=C(C2=C(C4=C(O)C(=O)c5c(ccc6c5C=C[C@@](C)(CCC=C(C)C)O6)C4=O)C(=O)c4c(ccc5c4C=C[C@@](C)(CCC=C(C)C)O5)C2=O)C3=O)O1` [CONOCURVONE], for which the EC50 in [1] turned out to be 20 nM.
Same read-out and setting: the figure for `COc1cc(C)cc2c(-c3c(O)cc(O)c4c3C[C@@H](C)N[C@@H]4C)cc(-c3cc(-c4c(O)cc(O)c5c4C[C@@H](C)N[C@@H]5C)c4cc(C)cc(OC)c4c3O)c(O)c12` [MICHELLAMINE A] is 1000 nM.
On to `Cc1cn([C@H]2C=C[C@@H](CO)O2)c(=O)[nH]c1=O` [STAVUDINE], for which the EC50 in [2] and in series [3] was 60 nM in each case.
In general, IC50 refers to the concentration that gives 50% inhibition. A high value points to weaker potency in that assay. `O=C(O[C@@H]1C[C@](OC(=O)c2cc(O)c(O)c(O)c2)(C(=O)O)C[C@@H](OC(=O)c2cc(O)c(O)c(O)c2)[C@H]1OC(=O)c1cc(O)c(O)c(O)c1)c1cc(O)c(O)c(O)c1`: in series [4], the IC50 came to 800 nM. For the same compound, in series [5], the selectivity ratio was found to be 20. Also, the EC50 in [6] was determined as 500 nM.
For `COc1cc2c[n+](C)c3c4cc5c(cc4ccc3c2cc1OC)OCO5` [NITIDINE CHLORIDE], the selectivity ratio in series [5] was 3. Further, in series [6], the EC50 was 14000 nM.
For `Nc1ncnc2c1ncn2[C@@H]1O[C@H](CO)C[C@@H]1F` [LODENOSINE], the selectivity ratio in [7] and in series [8] was more than 17 throughout. In addition, the EC50 in [2] and in series [3] was 1160 nM throughout.
With `CCCc1cc(=O)oc2c3c(c4c(c12)OC(C)(C)CC4)O[C@@H](C)[C@H](C)[C@@H]3O` [7,8-DIHYDROCALANOLIDE B], in series [5], the selectivity ratio amounted to 99.8. The EC50 in [6] is 100 nM.
As to `O=C(/C=C/c1ccc(O)c(O)c1)O[C@@H]1C[C@](O)(C(=O)O)C[C@@H](OC(=O)/C=C/c2ccc(O)c(O)c2)[C@H]1O`, in series [9], the EC50 was 1 µg/mL (≈ 1.94 µM). The selectivity ratio in series [10] is 150. This compound had an IC50 in [11] of 1280 nM.
As for `C=CC(C)(C)C1(CC=C(C)C)C(=O)Nc2ccccc2C1=O` (centres undefined) [BUCHAPINE], half-maximal inhibition in series [4] (IC50) was put at 10000 nM. In addition, the selectivity ratio in [5] worked out at 31. Moreover, the EC50 in [6] was found to be 940 nM.
Turning to `CC(C)=CCOc1c(CC=C(C)C)c(O)nc2ccccc12`, the selectivity ratio in series [5] was found to be 17. In addition, in [6], the EC50 was determined as 1640 nM.
With `Cc1cn([C@H]2C[C@H](N=[N+]=[N-])[C@@H](CO)O2)c(=O)[nH]c1=O` [ZIDOVUDINE], the selectivity ratio in [7] and in series [8] was more than 1000 throughout. The EC50 in series [2] and in [3] was 1 nM throughout.
As to `C=CC(C)(CC/C=C(\C)CCC=C(C)C)c1cc(O)c(O)c(-c2cc(C(C)(C=C)CC/C=C(\C)CCC=C(C)C)cc(O)c2O)c1` (centres undefined) [PELTATOL A], the EC50 in series [1] was 8000 nM.
Turning to `O=c1[nH]cnc2c1ncn2[C@H]1CC[C@@H](CO)O1` [DIDANOSINE], the selectivity ratio in series [7] and in series [8] was 1760 in each case.
Take `CC(C)CC(=O)N[C@H](C(=O)N[C@H](C(=O)N[C@@H](CC(C)C)[C@@H](O)CC(=O)N[C@@H](C)C(=O)N[C@@H](CC(C)C)[C@@H](O)CC(=O)O)C(C)C)C(C)C` [PEPSTATIN]: the EC50 in [2] was determined as 51800 nM; in [12], 69000 nM; in series [13], 150000 nM.
Consider `COC(=O)C(=O)O[C@]1(C(=O)O)C[C@@H](OC(=O)/C=C/c2ccc(O)c(O)c2)[C@H](O)[C@H](OC(=O)/C=C/c2ccc(O)c(O)c2)C1`, for which, in series [9], the EC50 came out at 4 µg/mL (≈ 6.64 µM). Also, the selectivity ratio in series [10] turned out to be 87. The compound further had an IC50 in [11] of 946 nM.
Take `Nc1ccn([C@@H]2CS[C@H](CO)O2)c(=O)n1` [LAMIVUDINE]: the EC50 in series [2] and in [3] was 60 nM throughout.
Regarding `CC(=O)O[C@@]12C[C@@H](C)[C@@]3(O)[C@@H](C=C(CO)C[C@]4(O)C(=O)C(C)=C[C@@H]34)[C@@H]1C2(C)C` [PROSTRATIN], the EC50 in [1] was not above 132 nM.
With `CSC[C@H](NC(=O)COc1cccc2cnccc12)C(=O)N[C@@H](Cc1ccccc1)[C@H](O)C(=O)N1CSC(C)(C)[C@H]1C(=O)NC(C)(C)C`, in series [14], the EC50 is 20 nM.
Regarding `CCCc1cc(=O)oc2c3c(c4c(c12)OC(C)(C)C=C4)O[C@@H](C)[C@H](C)[C@@H]3O` [COSTATOLIDE], the selectivity ratio in series [5] was more than 20. Further, in series [6], the EC50 was 200 nM.
Take `CCCc1cc(=O)oc2c3c(c4c(c12)OC(C)(C)C=C4)O[C@H](C)[C@@H](C)[C@@H]3O` [CALANOLIDE A]: the selectivity ratio in [5] was 103. Further, the EC50 in series [6] is 200 nM; in series [15] it was not above 600 nM; in series [16], not above 30 nM.
On to `C=C1C(=O)[C@]23C[C@H]1CC[C@H]2[C@]1(C)CCC[C@@](C)(C(=O)O)[C@H]1C[C@@H]3OC(C)=O` [XYLOPINIC ACID], for which the EC50 in series [1] was not above 900 nM.
Turning to `CO[C@@H]1C[C@@H](C[C@H]2CC[C@H](C)[C@H]([C@@H](C)C(=O)O)O2)O[C@]2(O[C@](C)([C@H]3CC[C@@](C)([C@@H]4O[C@@H]([C@H]5O[C@@](O)(CO)[C@H](C)C[C@@H]5C)C[C@@H]4C)O3)C[C@H]2C)[C@@H]1C` [NIGERICIN], in series [17], the IC50 was 140 nM. Moreover, the EC50 in series [2] was determined as 6 nM.
With `Nc1ccn([C@H]2CC[C@@H](CO)O2)c(=O)n1` [ZALCITABINE], the selectivity ratio in series [7] and in series [8] was 200 throughout. The EC50 in series [2] and in [3] was 1 nM throughout.
Consider `Cc1cc(O)c(C=O)c2c1C(=O)Oc1c(COC(=O)/C=C/C(=O)O)c(O)c(C(=O)O)c(C)c1O2` [FUMARPROTOCETRARIC ACID], for which the selectivity ratio in series [18] is more than 4.61. Moreover, the EC50 in series [19] was determined as 8400 nM.
For `CSC[C@H](NC(=O)COc1cccc2cnccc12)C(=O)N[C@@H](Cc1ccccc1)[C@H](O)C(=O)N1CSC[C@H]1C(=O)NC(C)(C)C`, in series [7], the selectivity ratio is more than 4.6. The EC50 in series [2] came out at 20 nM.
Consider `CN1CCCCC1c1c(O)cc(O)c2c(=O)cc(-c3ccccc3)oc12` (centres undefined), for which the selectivity ratio in series [5] was found to be 3. Moreover, the EC50 in [6] was determined as 260 nM.
